Test systems include EKVX NSCLC; HT29 colon; NCI-H460 lung; OVCAR-5 ovarian; SF-268 CNS; SF-295 CNS; SK-OV-3 ovarian; SW-620 colon; T-47D breast; UACC-257 melanoma.
Assay in all cases: NCI anticancer screen, dose series, 48 h

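Grown in 96-well plates, cells were treated for 48 hours with each compound at five concentrations. Insufficient inhibition: endpoint recorded as highest concentration tested. TGI is the concentration that stops growth completely.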

`CC(C)NC(=O)OCc1c(COC(=O)NC(C)C)n(C)c2c1ccc1sccc12`: the TGI in the assay on EKVX NSCLC is 34.1 µM; in the assay on HT29 colon, greater than 82.6 µM; with NCI-H460 lung, 27.2 µM; in the assay on OVCAR-5 ovarian, greater than 100 µM; with SF-268 CNS, 21.5 µM; in the assay on SF-295 CNS, greater than 87.7 µM. For the same compound, the TGI in the assay on SK-OV-3 ovarian is greater than 100 µM; in the assay on SW-620 colon, greater than 100 µM; in the assay on T-47D breast it was 47.2 µM; with UACC-257 melanoma it was 39.5 µM.

For `CCOC(=O)CSc1nc(N)c2c(-c3ccccc3)c3c(nc2n1)CCCC3`, the TGI in the assay on EKVX NSCLC, in the assay with HT29 colon, in the assay on NCI-H460 lung, with OVCAR-5 ovarian, in the assay on SF-268 CNS and with SF-295 CNS was greater than 100 µM throughout. Further, the TGI with SK-OV-3 ovarian, in the assay on SW-620 colon, with T-47D breast and in the assay on UACC-257 melanoma was greater than 100 µM in each case.

As to `O=C(CCc1cc(O)cc(O)c1)NCCc1cc(OCc2ccccc2)cc(OCc2ccccc2)c1`, the TGI with EKVX NSCLC worked out at 22.6 µM; in the assay with HT29 colon, 41.9 µM; with NCI-H460 lung it was 14.4 µM; in the assay on OVCAR-5 ovarian, 39.5 µM; with SF-268 CNS, 43.2 µM; in the assay with SF-295 CNS, 25.8 µM. For the same compound, the TGI was determined as 31.6 µM in the assay with SK-OV-3 ovarian, 53.3 µM with SW-620 colon, 39.3 µM in the assay on T-47D breast and 70 µM with UACC-257 melanoma.

On to `CN(/N=C1\C(=O)Nc2ccccc21)c1ccccc1`, for which the TGI in the assay on EKVX NSCLC, in the assay with HT29 colon, with NCI-H460 lung, with OVCAR-5 ovarian, with SF-268 CNS and with SF-295 CNS was greater than 100 µM each time. The TGI with SK-OV-3 ovarian, in the assay with SW-620 colon, in the assay on T-47D breast and with UACC-257 melanoma was greater than 100 µM in each case.

For `COCOc1ccc(C(=O)Oc2cccc3c2OC(C)(C)O3)c(OCOC)c1`, the TGI with EKVX NSCLC, in the assay with HT29 colon, in the assay with NCI-H460 lung, with OVCAR-5 ovarian, with SF-268 CNS and in the assay with SF-295 CNS was greater than 100 µM in each case. The TGI in the assay on SK-OV-3 ovarian, in the assay with SW-620 colon, in the assay on T-47D breast and in the assay with UACC-257 melanoma was greater than 100 µM in each case.

With `CCCCCCN(CCCCCC)C(=S)N/N=C(\C)c1ccccn1`, the TGI with EKVX NSCLC is 3.01 µM; in the assay on HT29 colon, 4.29 µM; with NCI-H460 lung it was 2.97 µM; with OVCAR-5 ovarian, 5.59 µM; with SF-268 CNS, 3.52 µM; in the assay with SF-295 CNS it was 3.19 µM. Also, the TGI was 2.77 µM with SK-OV-3 ovarian, 4.77 µM in the assay with SW-620 colon, 1.91 µM in the assay on T-47D breast and 4.34 µM in the assay on UACC-257 melanoma.

With `O=C(NCc1ccccc1)c1cc2ccccc2oc1=Nc1cccc(C(F)(F)F)c1`, the TGI in the assay with EKVX NSCLC, in the assay on HT29 colon, with NCI-H460 lung, with OVCAR-5 ovarian, in the assay on SF-268 CNS and in the assay on SF-295 CNS was greater than 100 µM throughout. Further, the TGI was greater than 100 µM in the assay with SK-OV-3 ovarian, greater than 100 µM in the assay with SW-620 colon, greater than 100 µM with T-47D breast and 84 µM in the assay on UACC-257 melanoma.

On to `O=C(/C=C/c1ccc(Cl)cc1)Oc1ccc(C=C2CCC/C(=C\c3ccc(OC(=O)/C=C/c4ccc(Cl)cc4)cc3)C2=O)cc1`, for which the TGI in the assay on EKVX NSCLC, in the assay on HT29 colon, in the assay on NCI-H460 lung, in the assay on OVCAR-5 ovarian, in the assay on SF-268 CNS and in the assay with SF-295 CNS was greater than 100 µM throughout. Besides, the TGI with SK-OV-3 ovarian, in the assay on SW-620 colon, in the assay on T-47D breast and in the assay with UACC-257 melanoma was greater than 100 µM in each case.

For the compound `COC1OC(C)C(NC(=O)OCC(Cl)(Cl)Cl)C2OC(C)(C)OC12` (stereo not given), the TGI with EKVX NSCLC, with HT29 colon, with NCI-H460 lung, in the assay with OVCAR-5 ovarian, with SF-268 CNS and with SF-295 CNS was greater than 100 µM in each case. In addition, the TGI in the assay with SK-OV-3 ovarian, in the assay with SW-620 colon, in the assay with T-47D breast and in the assay on UACC-257 melanoma was greater than 100 µM each time.

`C[n+]1cc2cc(O)c(O)cc2c2ccc3cc(O)c(O)cc3c21`: the TGI in the assay on EKVX NSCLC is greater than 100 µM; in the assay on HT29 colon, 66.9 µM; in the assay with NCI-H460 lung, greater than 60.2 µM; with OVCAR-5 ovarian, greater than 100 µM; in the assay with SF-268 CNS, 13.5 µM; in the assay on SF-295 CNS it was 38.8 µM. Besides, the TGI in the assay with SK-OV-3 ovarian was greater than 53 µM; in the assay on SW-620 colon, greater than 100 µM; with T-47D breast, greater than 100 µM; with UACC-257 melanoma, greater than 100 µM.

Turning to `CC1=CC2C3(C)C(C)(C(C)=CP3(=O)c3c(C(C)C)cc(C(C)C)cc3C(C)C)C1P2(=O)c1c(C(C)C)cc(C(C)C)cc1C(C)C` (stereo not given), the TGI in the assay on EKVX NSCLC came to 9.83 µM; in the assay with HT29 colon, 6.29 µM; in the assay with NCI-H460 lung, 3.01 µM; with OVCAR-5 ovarian it was 6.31 µM; in the assay on SF-268 CNS, 12.1 µM; with SF-295 CNS it was 6.72 µM. Also, the TGI in the assay with SK-OV-3 ovarian turned out to be 10.9 µM; with SW-620 colon it was 13.6 µM; with T-47D breast, 10.9 µM; with UACC-257 melanoma it was 3.34 µM.

With `c1ccc2c(c1)SCCCS2`, the TGI in the assay with EKVX NSCLC, with HT29 colon, with NCI-H460 lung, with OVCAR-5 ovarian, in the assay with SF-268 CNS and in the assay on SF-295 CNS was greater than 100 µM in each case. Besides, the TGI in the assay with SK-OV-3 ovarian, in the assay on SW-620 colon, in the assay with T-47D breast and with UACC-257 melanoma was greater than 100 µM each time.

Regarding `CN1CSC(=S)N(c2cccc(C(F)(F)F)c2)C1`, the TGI turned out to be 67.7 µM in the assay with EKVX NSCLC; 47.7 µM with HT29 colon; 42.6 µM in the assay with NCI-H460 lung; 37 µM in the assay on OVCAR-5 ovarian; 53 µM with SF-268 CNS; 51.2 µM with SF-295 CNS. The TGI with SK-OV-3 ovarian is greater than 100 µM; in the assay on SW-620 colon it was greater than 100 µM; in the assay on T-47D breast, greater than 100 µM; in the assay with UACC-257 melanoma, 50.7 µM.

Regarding `COc1ccc2c(c1)c1c(n2CCN2CCCCC2)-c2cccc(OC)c2CC1`, the TGI in the assay with EKVX NSCLC is 42 µM; in the assay with HT29 colon, 17.6 µM; in the assay on NCI-H460 lung, 55.9 µM; in the assay on OVCAR-5 ovarian, 32.8 µM; with SF-268 CNS, 48.8 µM; with SF-295 CNS, greater than 100 µM. In addition, the TGI was greater than 100 µM in the assay with SK-OV-3 ovarian, 42.5 µM in the assay on SW-620 colon, 47.2 µM in the assay on T-47D breast and 38 µM with UACC-257 melanoma.

The values are drawn from PubChem BioAssay (NCI).
